Laboratory results from patent US20250026759A1 (Merck Sharp & Dohme LLC, priority 2023, published 2025).

Test system: PBMCs infected with VSV-G pseudotyped HIV virus (VSV-G/pNLG1-P2A-ΔEnv)
Test: cells
Assay type: cell-based, human
Conditions: Homo sapiens, PBMC, read-out: TACK EC50

Cn1ccc(-c2ccn(Cc3cc4c(cc3F)[C@@](C#CC3CC3)(C(C)(F)F)NC(=O)N4)n2)n1 [Example 53, (S)-4-(cyclopropylethynyl)-4-(1,1-difluoroethyl)-6-fluoro-7-((1′-methyl-1H,1′H-[3,3′-bipyrazol]-1-yl)methyl)-3,4-dihydroquinazolin-2(1H)-one]
EC50: 28.3 nM

COCc1ccn(Cc2cc3c(cc2F)[C@@](C#CC2CC2)(C(C)(F)F)NC(=O)N3)n1 [Example 54, (S)-4-(cyclopropylethynyl)-4-(1,1-difluoroethyl)-6-fluoro-7-((3-(methoxymethyl)-1H-pyrazol-1-yl)methyl)-3,4-dihydroquinazolin-2(1H)-one]
EC50: 33.5 nM

CC(F)(F)[C@@]1(C#CC2CC2)NC(=O)Nc2cc(Cn3cccn3)c(F)cc21 [Example 55, (S)-7-((1H-pyrazol-1-yl)methyl)-4-(cyclopropylethynyl)-4-(1,1-difluoroethyl)-6-fluoro-3,4-dihydroquinazolin-2(1H)-one]
EC50: 21.7 nM

CC(F)(F)[C@@]1(C#CC2CC2)NC(=O)Nc2cc(Cn3ccnc3)c(F)cc21 [Example 56, (S)-7-((1H-imidazol-1-yl)methyl)-4-(cyclopropylethynyl)-4-(1,1-difluoroethyl)-6-fluoro-3,4-dihydroquinazolin-2(1H)-one]
EC50: 28 nM

COc1ccn(Cc2cc3c(cc2F)[C@@](C#CC2CC2)(C(C)(F)F)NC(=O)N3)n1 [Example 57, (S)-4-(cyclopropylethynyl)-4-(1,1-difluoroethyl)-6-fluoro-7-((3-methoxy-1H-pyrazol-1-yl)methyl)-3,4-dihydroquinazolin-2(1H)-one]
EC50: 12.8 nM

CC(F)(F)[C@@]1(C#CC2CC2)NC(=O)Nc2cc(Cn3nc(N)cc3Cl)c(F)cc21 [Example 60, (S)-7-((3-amino-5-chloro-1H-pyrazol-1-yl)methyl)-4-(cyclopropylethynyl)-4-(1,1-difluoroethyl)-6-fluoro-3,4-dihydroquinazolin-2(1H)-one]
EC50: 28.9 nM

CC(F)(F)[C@@]1(C#CC2CC2)NC(=O)Nc2cc(Cn3[nH]c(=O)c4c3CCC4)c(F)cc21 [Example 61, (S)-4-(cyclopropylethynyl)-4-(1,1-difluoroethyl)-6-fluoro-7-((3-oxo-3,4,5,6-tetrahydrocyclopenta[c]pyrazol-1(2H)-yl)methyl)-3,4-dihydroquinazolin-2(1H)-one]
EC50: 30.6 nM

NC(=O)c1nccn1Cc1cc2c(cc1F)[C@@](C#CC1CC1)(C(F)(F)C1CC1)NC(=O)N2 [Example 62, (S)-1-((4-(cyclopropyldifluoromethyl)-4-(cyclopropylethynyl)-6-fluoro-2-oxo-1,2,3,4-tetrahydroquinazolin-7-yl)methyl)-1H-imidazole-2-carboxamide]
EC50: 31.9 nM

CC(F)(F)[C@@]1(C#CC2CC2)NC(=O)Nc2cc(Cn3ccc(OC(F)F)n3)c(F)cc21 [Example 63, (S)-4-(cyclopropylethynyl)-4-(1,1-difluoroethyl)-7-((3-(difluoromethoxy)-1H-pyrazol-1-yl)methyl)-6-fluoro-3,4-dihydroquinazolin-2(1H)-one]
EC50: 33.5 nM

COCc1cnn(Cc2cc3c(cc2F)[C@@](C#CC2CC2)(C(C)(F)F)NC(=O)N3)c1 [Example 64, (S)-4-(cyclopropylethynyl)-4-(1,1-difluoroethyl)-6-fluoro-7-((4-(methoxymethyl)-1H-pyrazol-1-yl)methyl)-3,4-dihydroquinazolin-2(1H)-one]
EC50: 34 nM

COCc1ncn(Cc2cc3c(cc2F)[C@@](C#CC2CC2)(C(C)(F)F)NC(=O)N3)n1 [Example 65, (S)-4-(cyclopropylethynyl)-4-(1,1-difluoroethyl)-6-fluoro-7-((3-(methoxymethyl)-1H-1,2,4-triazol-1-yl)methyl)-3,4-dihydroquinazolin-2(1H)-one]
EC50: 38.1 nM

COCc1nn(Cc2cc3c(cc2F)[C@@](C#CC2CC2)(C(C)(F)F)NC(=O)N3)cc1Cl [Example 66, (S)-7-((4-chloro-3-(methoxymethyl)-1H-pyrazol-1-yl)methyl)-4-(cyclopropylethynyl)-4-(1,1-difluoroethyl)-6-fluoro-3,4-dihydroquinazolin-2(1H)-one]
EC50: 38.9 nM

CC(F)(F)[C@@]1(C#CC2CC2)NC(=O)Nc2cc(Cn3cc(F)c(CO)n3)c(F)cc21 [Example 67, (S)-4-(cyclopropylethynyl)-4-(1,1-difluoroethyl)-6-fluoro-7-((4-fluoro-3-(hydroxymethyl)-1H-pyrazol-1-yl)methyl)-3,4-dihydroquinazolin-2(1H)-one]
EC50: 26.1 nM

Cc1cn(Cc2cc3c(cc2F)[C@@](C#CC2CC2)(C(C)(F)F)NC(=O)N3)nc1CO [Example 68, (S)-4-(cyclopropylethynyl)-4-(1,1-difluoroethyl)-6-fluoro-7-((3-(hydroxymethyl)-4-methyl-1H-pyrazol-1-yl)methyl)-3,4-dihydroquinazolin-2(1H)-one]
EC50: 31 nM

CC(F)(F)[C@@]1(C#CC2CC2)NC(=O)Nc2cc(Cn3nc(CO)cc3Cl)c(F)cc21 [Example 69, (S)-7-((5-chloro-3-(hydroxymethyl)-1H-pyrazol-1-yl)methyl)-4-(cyclopropylethynyl)-4-(1,1-difluoroethyl)-6-fluoro-3,4-dihydroquinazolin-2(1H)-one]
EC50: 29.8 nM

CC(F)(F)[C@@]1(C#CC2CC2)NC(=O)Nc2cc(Cn3cc(CCO)cn3)c(F)cc21 [Example 70, (S)-4-(cyclopropylethynyl)-4-(1,1-difluoroethyl)-6-fluoro-7-((4-(2-hydroxyethyl)-1H-pyrazol-1-yl)methyl)-3,4-dihydroquinazolin-2(1H)-one]
EC50: 50.7 nM

CC(F)(F)[C@@]1(C#CC2CC2)NC(=O)Nc2cc(Cn3cc(Cl)c(CO)n3)c(F)cc21 [Example 71, (S)-7-((4-chloro-3-(hydroxymethyl)-1H-pyrazol-1-yl)methyl)-4-(cyclopropylethynyl)-4-(1,1-difluoroethyl)-6-fluoro-3,4-dihydroquinazolin-2(1H)-one]
EC50: 30 nM

COc1nccn1Cc1cc2c(cc1F)[C@@](C#CC1CC1)(C(C)(F)F)NC(=O)N2 [Example 74, (S)-4-(cyclopropylethynyl)-4-(1,1-difluoroethyl)-6-fluoro-7-((2-methoxy-1H-imidazol-1-yl)methyl)-3,4-dihydroquinazolin-2(1H)-one]
EC50: 38.1 nM

CNc1ccn(Cc2cc3c(cc2F)[C@@](C#CC2CC2)(C(C)(F)F)NC(=O)N3)n1 [Example 75, (S)-4-(cyclopropylethynyl)-4-(1,1-difluoroethyl)-6-fluoro-7-((3-(methylamino)-1H-pyrazol-1-yl)methyl)-3,4-dihydroquinazolin-2(1H)-one]
EC50: 36.9 nM

CN(C)c1ccn(Cc2cc3c(cc2F)[C@@](C#CC2CC2)(C(C)(F)F)NC(=O)N3)n1 [Example 76, (S)-4-(cyclopropylethynyl)-4-(1,1-difluoroethyl)-7-((3-(dimethylamino)-1H-pyrazol-1-yl)methyl)-6-fluoro-3,4-dihydroquinazolin-2(1H)-one]
EC50: 60.4 nM

CC(F)(F)[C@@]1(C#CC2CC2)NC(=O)Nc2cc(CNC(=O)c3[nH]cnc3Cl)c(F)cc21 [Example 77, (S)-4-chloro-N-((4-(cyclopropylethynyl)-4-(1,1-difluoroethyl)-6-fluoro-2-oxo-1,2,3,4-tetrahydroquinazolin-7-yl)methyl)-1H-imidazole-5-carboxamide]
EC50: 8.7 nM

O=C1Nc2cc(CNC(=O)c3[nH]cnc3Cl)c(F)cc2[C@@](C#CC2CC2)(C(F)(F)F)N1 [Example 78, (S)-4-chloro-N-((4-(cyclopropylethynyl)-6-fluoro-2-oxo-4-(trifluoromethyl)-1,2,3,4-tetrahydroquinazolin-7-yl)methyl)-1H-imidazole-5-carboxamide]
EC50: 15.1 nM

CC(F)(F)[C@@]1(C#CC2CC2)NC(=O)Nc2cc(CNC(=O)c3ncc[nH]3)c(F)cc21 [Example 79, (S)—N-((4-(cyclopropylethynyl)-4-(1,1-difluoroethyl)-6-fluoro-2-oxo-1,2,3,4-tetrahydroquinazolin-7-yl)methyl)-1H-imidazole-2-carboxamide]
EC50: 9.2 nM

O=C1Nc2cc(CNC(=O)c3ncc[nH]3)c(F)cc2[C@@](C#CC2CC2)(C(F)(F)F)N1 [Example 80, (S)-N-((4-(cyclopropylethynyl)-6-fluoro-2-oxo-4-(trifluoromethyl)-1,2,3,4-tetrahydroquinazolin-7-yl)methyl)-1H-imidazole-2-carboxamide]
EC50: 9.8 nM

CN(Cc1cc2c(cc1F)[C@@](C#CC1CC1)(C(C)(F)F)NC(=O)N2)C(=O)c1ncc[nH]1 [Example 81, (S)-N-((4-(cyclopropylethynyl)-4-(1,1-difluoroethyl)-6-fluoro-2-oxo-1,2,3,4-tetrahydroquinazolin-7-yl)methyl)-N-methyl-1H-imidazole-2-carboxamide]
EC50: 12.1 nM

Cn1ccnc1C(=O)NCc1cc2c(cc1F)[C@@](C#CC1CC1)(C(C)(F)F)NC(=O)N2 [Example 82, (S)-N-((4-(cyclopropylethynyl)-4-(1,1-difluoroethyl)-6-fluoro-2-oxo-1,2,3,4-tetrahydroquinazolin-7-yl)methyl)-1-methyl-1H-imidazole-2-carboxamide]
EC50: 154 nM

O=C1Nc2cc(CNC(=O)c3ncco3)c(F)cc2[C@@](C#CC2CC2)(C(F)(F)F)N1 [Example 83, (S)-N-((4-(cyclopropylethynyl)-6-fluoro-2-oxo-4-(trifluoromethyl)-1,2,3,4-tetrahydroquinazolin-7-yl)methyl)oxazole-2-carboxamide]
EC50: 158 nM

Cc1nc(N)sc1C(=O)NCc1cc2c(cc1F)[C@@](C#CC1CC1)(C(F)(F)F)NC(=O)N2 [Example 84, (S)-2-amino-N-((4-(cyclopropylethynyl)-6-fluoro-2-oxo-4-(trifluoromethyl)-1,2,3,4-tetrahydroquinazolin-7-yl)methyl)-4-methylthiazole-5-carboxamide]
EC50: 273 nM

O=C1Nc2cc(CNC(=O)c3nnc[nH]3)c(F)cc2[C@@](C#CC2CC2)(C(F)(F)F)N1 [Example 85, (S)-N-((4-(cyclopropylethynyl)-6-fluoro-2-oxo-4-(trifluoromethyl)-1,2,3,4-tetrahydroquinazolin-7-yl)methyl)-4H-1,2,4-triazole-3-carboxamide]
EC50: 280 nM
